Reference: patent publication US7531344B2, “Induction and stabilization of enzymatic activity in microorganisms” (Georgia State University Research Foundation, Inc., priority 2006, dated 2009)

Assays:
asparaginase I [1] = assay: Effect of media composition and inducer on asparaginase I, Example 10; format: cell-based, Rhodococcus sp. DAP 96253; details: for effect of medium additive on asparaginase I activity: maltose added to YEMEA, Cobalt 5-50 ppm with glucose or maltose; for Asparaginase I levels / ability to induce asparaginase I activity: inducer 1000 ppm
Text: (§1) In certain embodiments, activity can be referred to in terms of “units” per mass of enzyme or cells (typically based on the dry weight of the cells, e.g., units/mg cdw). A “unit” generally refers to the ability to convert a specific content of a compound to a different compound under a defined set of conditions as a function of time. In specific embodiments, 1 “unit” of nitrile hydratase activity can relate to the ability to convert 1 μmol of acrylonitrile to its corresponding amide per minute, per milligram of cells (dry weight) at a of pH 7.0 and a temperature of 30° C. Similarly, 1 unit of amidase activity can relate to the ability to convert 1 μmol of acrylamide to its corresponding acid per minute, per milligram of cells (dry weight) at a pH of 7.0 and a temperature of 30° C. Further, 1 unit of asparaginase I activity can relate to the ability to convert 1 μmol of asparagine to its corresponding acid per minute, per milligram of cells (dry weight) at a pH of 7.0 and a temperature of 30° C.
Testing was performed to evaluate the effect on asparaginase I activity based upon the inducer used. In particular, testing was performed using asparagine, glutamine, succinonitrile, and isovaleronitrile as inducers (all added at 1000 ppm each).

asparaginase I [2] = assay: Asparaginase I production, Example 8; format: cell-based; details: asparagine and glutamine 3.8 mM
Text: as §1
The induction of asparaginase I production in various nitrile hydratase producing microorganisms was evaluated. All strains were grown on YEMEA medium containing 7.5 g/L of urea and 10 ppm cobalt (provided as cobalt chloride) supplemented with asparagine (ASN), glutamine (GLN), or both asparagine and glutamine. The asparagine and glutamine were added 3.8 mM. As a comparative, enzyme production was also evaluated with supplementation was with acrylonitrile (AN), acrylamide (AMD) or acrylonitrile and acrylamide. Growth temperature was in the range of 26° C. to 30° C.

amidase [3] = assay: Amidase induction by inducers, Example 1; format: cell-based, Rhodococcus sp., strain DAP 96253; details: for amidase activity greater than the amidase activity resulting from the use of acrylonitrile: relative to acrylonitrile induction, Table 1
Text: as §1
(§2) The induction of nitrile hydratase activity and amidase activity in Rhodococcus sp., strain DAP 96253, was evaluated using multiple types of inducers (1000 ppm). Three different samples were cultured in YEMEA medium containing 10 ppm cobalt and 7.5 g/L urea and supplemented with acrylonitrile, asparagine, or glutamine. The specific nitrile hydratase activity and the specific amidase activity in each sample was evaluated, and the results are provided below in Table 1, with activities provided in units/mg cdw (cell dry weight). One unit of nitrile hydratase activity relates to the ability to convert 1 μmol of acrylonitrile to its corresponding amide per minute, per milligram of cells (dry weight) at a of pH 7.0 and a temperature of 30° C. One unit of amidase activity relates to the ability to convert 1 μmol of acrylamide to its corresponding acid per minute, per milligram of cells (dry weight) pH of 7.0 and a temperature of 30° C.

nitrile hydratase [4] = assay: Nitrile hydratase induction by inducers, Example 1; format: cell-based, Rhodococcus sp., strain DAP 96253; details: for nitrile hydratase induction compared with acrylonitrile: Table 1 comparison
Text: as §1, §2

asparaginase I [5] = assay: 20 liter fermentation with asparagine feed: asparaginase I; format: cell-based, Rhodococcus sp. DAP 96253; details: asparagine 0.15M at 1000 μl/min from t=10 h
Protocol: (§3) Rhodococcus sp. DAP 96253 were grown using biphasic medium as the source of inoculum for a 20 liter fermentation. The supplemental addition of medium/carbohydrate (either YEMEA, dextrose or maltose) was made to the modified R2A medium, containing cottonseed hydrolysate substituted for the Proteos Peptone 3 (PP3). Asparagine (0.15M solution) was added at a continuous rate of 1000 μl/min beginning at t=10 h. At the end of the fermentation run, 159 units per milligram cell dry weight of acrylonitrile specific nitrile hydratase, 22 units of amidase per milligram cell dry weight, and 16 g/l cell packed wet weight were produced.

[6] = test system: acrylonitrile specific nitrile hydratase; assay: 20 liter fermentation with asparagine feed: nitrile hydratase; format: cell-based, Rhodococcus sp. DAP 96253; details: asparagine 0.15M at 1000 μl/min from t=10 h
Protocol: as §3

amidase [7] = assay: 20 liter fermentation with asparagine feed: amidase; format: cell-based, Rhodococcus sp. DAP 96253; details: asparagine 0.15M at 1000 μl/min from t=10 h
Protocol: as §3

amidase [8] = assay: Amidase production, Example 7; format: cell-based; details: Pseudomonas chloroaphis ATCC 43051; 30 °C; supplement 3.8 mM
Protocol: (§4) In certain embodiments, activity can be referred to in terms of “units” per mass of enzyme or cells (typically based on the dry weight of the cells, e.g., units/mg cdw). A “unit” generally refers to the ability to convert a specific content of a compound to a different compound under a defined set of conditions as a function of time. […] The induction of nitrile hydratase production and amidase production in various nitrile hydratase producing microorganisms was evaluated. […] The asparagine and glutamine were added 3.8 mM. As a comparative, enzyme production with no supplementation was also tested. Growth temperature was in the range of 26° C. to 30° C.

nitrile hydratase [9] = assay: Nitrile hydratase production, Example 7; format: cell-based; details: Pseudomonas chloroaphis ATCC 43051; 30 °C; supplement 3.8 mM
Protocol: as §4

[10] = Rhodococcus sp. DAP 96253, YEMEA, 10 ppm cobalt, 7.5 g/L urea, inducer 1000 ppm
[11] = YEMEA - Glucose, Without Cobalt
[12] = YEMEA - Maltose, Without Cobalt

OC[C@H]1O[C@H](O[C@H]2[C@H](O)[C@@H](O)C(O)O[C@@H]2CO)[C@H](O)[C@@H](O)[C@@H]1O (mixture of isomers) [maltose]
effect of medium additive on asparaginase I activity (asparaginase I [1]): Higher asparaginase I activity

C=CC#N [Acrylonitrile, acrylonitrile]
Asparaginase I Level Based on Growth Medium Supplementation (asparaginase I [2]; Brevibacterium ketoglutaricum ATCC 21533, 30 °C): 14.6 Units/mg cdw
Asparaginase I Level Based on Growth Medium Supplementation (asparaginase I [2]; Pseudomonas chloroaphis ATCC 13985, 26 °C): 2 Units/mg cdw
Asparaginase I Level Based on Growth Medium Supplementation (asparaginase I [2]; Rhodococcus rhodochrous DAP 96622 (ATCC 55898), 26 °C): 8.2 Units/mg cdw
Asparaginase I Level Based on Growth Medium Supplementation (asparaginase I [2]; Rhodococcus sp. DAP 96253 (ATCC 55899), 30 °C): 7.8 Units/mg cdw
Amidase Activity (amidase [3]; [10]): 7.59 Units/mg cdw
Nitrile Hydratase Activity (nitrile hydratase [4]; [10]): 162.23 Units/mg cdw

NC(=O)C[C@H](N)C(=O)O [Asparagine, asparagine]
asparaginase I produced at end of fermentation (asparaginase I [5]): 16 units per milligram cell dry weight
amidase activity greater than the amidase activity resulting from the use of acrylonitrile (amidase [3]): approximately 74%
acrylonitrile specific nitrile hydratase produced at end of fermentation [6]: 159 units per milligram cell dry weight
Asparaginase I levels (asparaginase I [1]; YEMEA - Glucose, With Cobalt): 6.5 units/mg cell dry weight
Asparaginase I levels (asparaginase I [1]; [11]): 5.3 units/mg cell dry weight
Asparaginase I levels (asparaginase I [1]; [12]): 8.7 units/mg cell dry weight
amidase produced at end of fermentation (amidase [7]): 22 units per milligram cell dry weight
nitrile hydratase induction compared with acrylonitrile (nitrile hydratase [4]): exceeds the ability of acrylonitrile to induce such activity

[Co] [Cobalt]
effect of medium additive on asparaginase I activity (asparaginase I [1]): resulted in improvements

NC(=O)CC[C@H](N)C(=O)O [Glutamine, glutamine]
Asparaginase I Level Based on Growth Medium Supplementation (asparaginase I [2]; Pseudomonas chloroaphis ATCC 43051, 30 °C): No
Amidase Level Based on Growth Medium Supplementation (amidase [8]): No
amidase activity greater than the amidase activity resulting from the use of acrylonitrile (amidase [3]): approximately 37%
Nitrile Hydratase Level Based on Growth Medium Supplementation (nitrile hydratase [9]): No
Asparaginase I levels (asparaginase I [1]; YEMEA - Glucose, With Cobalt): 1.9 units/mg cell dry weight
Asparaginase I levels (asparaginase I [1]; [11]): 1.5 units/mg cell dry weight
Asparaginase I levels (asparaginase I [1]; YEMEA - Maltose, With Cobalt): 8.1 units/mg cell dry weight
Asparaginase I levels (asparaginase I [1]; [12]): 9.3 units/mg cell dry weight
ability to induce asparaginase I activity (asparaginase I [1]): showed an ability to induce asparaginase I activity
nitrile hydratase induction compared with acrylonitrile (nitrile hydratase [4]): exceeds the ability of acrylonitrile to induce such activity

CC(C)CC#N [Isovaleronitrile, isovaleronitrile, reference compound]
Asparaginase I levels (asparaginase I [1]; YEMEA - Glucose, With Cobalt): 2.9 units/mg cell dry weight
Asparaginase I levels (asparaginase I [1]; [11]): 3.5 units/mg cell dry weight
Asparaginase I levels (asparaginase I [1]; YEMEA - Maltose, With Cobalt): 7.0 units/mg cell dry weight
Asparaginase I levels (asparaginase I [1]; [12]): 6.8 units/mg cell dry weight

N#CCCC#N [Succinonitrile, succinonitrile, reference compound]
Asparaginase I levels (asparaginase I [1]; YEMEA - Glucose, With Cobalt): 8.5 units/mg cell dry weight
Asparaginase I levels (asparaginase I [1]; [11]): 6.5 units/mg cell dry weight
Asparaginase I levels (asparaginase I [1]; YEMEA - Maltose, With Cobalt): 10.0 units/mg cell dry weight
Asparaginase I levels (asparaginase I [1]; [12]): 11.0 units/mg cell dry weight
ability to induce asparaginase I activity (asparaginase I [1]): showed an ability to induce asparaginase I activity
